# Like-named read-outs stand apart in the source and are kept apart here.
# Tests used:
# [1] = test system: MV4; 11 cells (MLL-AF4 AML); assay: MTT cell proliferation assay; format: cell-based, human
# Protocol: (§1) Example 18: Cell proliferation assays. The ability of a compound of the present disclosure to inhibit the growth of cells was tested in both MLL leukemia cell lines (e.g., MV4; 11, MOLM13 and/or KOPN8) and control cell lines (e.g., K562, REH, U937, KG-1, and/or HL-60) using the MTT cell proliferation assay (ATCC® 30-1010K). […] Cells were plated at about 1×10^5 cells per well in a 96-well plate. A compound of the present disclosure was added at a concentration up to about 2 μM with seven, 2-fold serial dilutions for each compound. Cells were incubated at 37° C. for 72 hours, then cells in the control wells were counted. Media was changed to restore viable cell numbers to the original concentration, and compounds were re-supplied. Proliferation was measured 96 hours later using MTT reagents, as per kit instructions. […] The GIso value of a compound of the present disclosure, such as Compound D of FIG. 11, was 10 nM in MV4; 11 cells (MLL-AF4 AML), 17 nM in MOLM13 cells (MLL-AF9 AML), 18 nM in KOPN8 (MLL-ENL AML) cells, greater than 2000 nM in HL-60 cells, and greater than 2000 nM in U937 cells. REH, K562, KG-1, and U937 cells are control cell lines without MLL fusions.
# [2] = test system: KOPN8 (MLL-ENL AML) cells; assay: MTT cell proliferation assay; format: cell-based
# Protocol: as §1
# [3] = test system: MOLM13 cells (MLL-AF9 AML); assay: MTT cell proliferation assay; format: cell-based
# Protocol: as §1
# HL-60 cells = assay: MTT cell proliferation assay, control cell line; format: cell-based; details: HL-60 cells (control)
# Protocol: as §1
# U937 cells = assay: MTT cell proliferation assay, control cell line; format: cell-based
# Protocol: as §1
# [4] = test system: MLL fusion protein target genes HOXA9, DLX2, MEIS1 and differentiation marker CD11B; assay: qRT-PCR gene expression in bone marrow samples of treated xenotransplantation mice; format: in vivo, mouse; details: Day 7 of treatment, qRT-PCR normalized to GAPDH
# Protocol: Animals were sacrificed on Day 7 of treatment and bone marrow samples collected and prepared for gene expression analysis. Expression levels of MLL fusion protein target genes HOXA9, DLX2, and/or MEIS1 were measured by qRT-PCR and are presented in FIG. 6, FIG. 9 and FIG. 12 as fold changes normalized to GAPDH expression.
# MOLM13 cells = assay: Survival study in xenotransplantation MOLM13 xenograft model; format: in vivo, mouse
# Protocol: For survival studies in the xenotransplantation MOLM13 xenograft model, 6 to 8-week old female NSG mice were intravenously injected with 0.5×10^6 MOLM13 cells harboring […] translocation. At day 4 after transplantation, treatment was initiated with Compound C, 75 mg/kg, b.i.d., p.o. or vehicle (20% 2-hydroxypropyl-b-cyclodextrin with 5% cremophore) and was continued for 16 consecutive days in the compound treated mice or until terminal leukemia developed in the vehicle-treated mice.
# Similarly, a 120 mg/kg b.i.d. treatment regimen of Compound D was initiated on day 6 after MOLM13 transplantation and continued for 16 consecutive days in the compound treated mice or until terminal leukemia developed in the vehicle-treated mice.
# Menin MLL 4-43 = target: T1, Menin MLL 4-43 (Homo sapiens, UniProt O00255); assay: Fluorescence polarization (FP) competition assay of the menin-MLL interaction; format: binding
# T1 sequence (O00255 1-610): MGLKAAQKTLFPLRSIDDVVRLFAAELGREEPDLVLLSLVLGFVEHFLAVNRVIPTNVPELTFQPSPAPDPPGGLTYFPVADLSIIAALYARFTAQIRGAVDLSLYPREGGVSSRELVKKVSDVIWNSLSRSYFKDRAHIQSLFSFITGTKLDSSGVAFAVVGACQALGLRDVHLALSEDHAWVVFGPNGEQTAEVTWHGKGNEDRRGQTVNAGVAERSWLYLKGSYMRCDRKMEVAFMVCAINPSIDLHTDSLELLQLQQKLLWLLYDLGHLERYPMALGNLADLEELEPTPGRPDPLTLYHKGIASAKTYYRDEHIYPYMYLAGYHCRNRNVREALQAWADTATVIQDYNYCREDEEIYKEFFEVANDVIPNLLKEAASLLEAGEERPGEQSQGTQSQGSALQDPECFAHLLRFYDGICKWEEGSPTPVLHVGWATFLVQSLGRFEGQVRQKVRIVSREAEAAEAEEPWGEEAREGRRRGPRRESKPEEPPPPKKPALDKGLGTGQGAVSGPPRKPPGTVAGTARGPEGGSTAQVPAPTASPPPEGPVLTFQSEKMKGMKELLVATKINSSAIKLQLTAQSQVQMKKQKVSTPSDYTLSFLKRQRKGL
# MLL-AF9 BMC = assay: Cell proliferation assay (CellTiter-Glo); format: cell-based
# Protocol: Example 9: Cell proliferation assay. The ability of a compound of the present disclosure to inhibit the growth of cells, such as human leukemia cell, acute myeloid leukemia cell, cells with an MLL fusion, control cells without an MLL fusion, VCaP, LNCaP, 22RV1, DU145, LNCaP-AR, MV4; 11, KOPN-8, ML-2, MOLM-13, RS4; 11, SEM, bone marrow cells (BMCs), MLL-AF9, MLL-AF4, MLL-ENL, MLL-CBP, MLL-GAS7, MLL-AF1p, MLL-AF6, HM-2, E2A-HLF, REH, U937, K562, KG-1, HL-60 and NB4 cells, is tested using a cell viability assay, such as the Promega CellTiter-Glo® Luminescent Cell Viability Assay (Promega Technical Bulletin, 2015, “CellTiter-Glo® Luminescent Cell Viability Assay”: 1-15, herein incorporated by reference in its entirety). Cells are plated at relevant concentrations, for example about 1×10^5-2×10^5 cells per well in a 96-well plate. A compound of the present disclosure is added at a concentration up to about 2 μM with eight, 2-fold serial dilutions for each compound. Cells are incubated at 37° C. for a period of time, for example, 72 hours, then cells in the control wells are counted. Media is changed to restore viable cell numbers to the original concentration, and compounds are re-supplied. Proliferation is measured about 72 hours later using Promega CellTiter-Glo® reagents, as per kit instructions.
# MV4; 11-luc tumors = assay: Efficacy study in xenotransplantation mouse model of MLL leukemia (luminescence); format: in vivo; details: NSG mice, 120 mg/kg b.i.d. oral gavage, 6 days of treatment
# Protocol: Example 20: Efficacy study in xenotransplantation mouse model ofMLL leukemia. […] Luciferase expressing human MV4; 11 leukemia cells (MV4; 11-luc) were engrafted intravenously via tail vein injection (1×10^7 cells/animal) When the mean luminescence of the cells reached approximately 1.5×10^6, the tumor-bearing mice were randomly assigned to a vehicle control or a compound treatment group (5 animals per group). Animals in each of the treatment groups were administered a different compound of the present disclosure by oral gavage (120 mg/kg b.i.d, 150 mg/kg b.i.d., 200 mg/kg b.i.d., or 200 mg/kg q.d.). Body weight was measured daily, while mean luminescence was measured 6 days after initiating the treatment with compound or vehicle.
SMILES,GI50 [1] [nM],GI50 [2] [nM],GI50 [3] [nM],GI50 (HL-60 cells) [nM],GI50 (U937 cells) [nM],Expression level of HOXA9 [4],Expression level of MEIS1 [4],Expression of differentiation marker CD1 lb [4],"Median survival time (MOLM13 cells; NSG mice, 120 mg/kg b.i.d., 16 consecutive days from day 6 after MOLM13 transplantation) [days]",Survival benefit (MOLM13 cells; versus vehicle control group) [%],Survival benefit (MOLM13 cells; versus vehicle control group (16 days)) [days],"IC50 (Menin MLL 4-43; fluorescence polarization assay, read-out: Menin MLL 4-43 IC50) [nM]","IC50 (Menin MLL 4-43; read-out: IC50 value (ability to disrupt the menin-MLL interaction, per Example 6)) [nM]",GI50 (MLL-AF9 BMC) [nM],Tumor growth (luminescence) relative to vehicle control (MV4; 11-luc tumors)
Cc1nc(NC2CCN(Cc3ccc4c(cc(C#N)n4C[C@H](C)N4CCC(S(C)(=O)=O)CC4)c3C)CC2)c2cc(CC(F)(F)F)sc2n1 [Compound D],10,18,17,> 2000,> 2000,substantially reduced,substantially reduced,elevated,24,75,18,,,,
Cc1nc(NC2CCN(Cc3ccc4c(cc(C#N)n4C[C@H](C)N4CCC(S(C)(=O)=O)CC4)c3C)CC2)c2cc(CC(F)(F)F)sc2n1 [Compound 165],,,,,,,,,,,,< 50,< 50,< 10,inhibited tumor growth and induced tumor regression
